Test results taken from ChEMBL document CHEMBL1909046, “DrugMatrix in vitro pharmacology data”.

Key:
Glycine receptor = Glycine receptor (Rattus norvegicus, UniProt P22771+P24524+P07727+P20781); type: cell membranes, Wistar, Spinal cord, Membrane; also: in other assays of this panel Not Active means under 50% inhibition at 10 µM
[1] = biological target: T1, Alpha-1B adrenergic receptor (Rattus norvegicus, UniProt P15823); assay: DRUGMATRIX: Alpha-1B adrenergic receptor radioligand binding (ligand: prazosin); type: cell membranes, Wistar, Liver, Membrane; conditions: Not Active = under 50% inhibition at 10 µM
T1 sequence (P15823 whole entry): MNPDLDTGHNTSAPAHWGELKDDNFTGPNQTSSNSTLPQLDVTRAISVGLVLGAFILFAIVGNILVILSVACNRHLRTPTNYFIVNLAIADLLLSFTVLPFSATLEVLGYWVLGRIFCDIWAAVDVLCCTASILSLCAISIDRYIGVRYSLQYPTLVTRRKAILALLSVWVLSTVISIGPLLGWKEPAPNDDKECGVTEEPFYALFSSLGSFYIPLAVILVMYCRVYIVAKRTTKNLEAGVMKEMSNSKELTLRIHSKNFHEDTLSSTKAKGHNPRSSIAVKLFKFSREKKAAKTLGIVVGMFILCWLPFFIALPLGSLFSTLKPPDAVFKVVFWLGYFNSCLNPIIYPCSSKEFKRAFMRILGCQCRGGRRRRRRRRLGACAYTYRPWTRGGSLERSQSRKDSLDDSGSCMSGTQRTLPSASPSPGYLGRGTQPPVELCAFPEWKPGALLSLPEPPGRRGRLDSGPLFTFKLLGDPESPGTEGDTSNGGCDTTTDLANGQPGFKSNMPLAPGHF

Neutrophil elastase = biological target: T2, Neutrophil elastase (Homo sapiens, UniProt P08246); type: tissue-based;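 also: inhibition of neutrophil elastase enzyme activity, measured with a p-nitroanilide-linked peptide substrate; in other assays of this panel Not Active means under 50% inhibition at 10 µM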
T2 sequence (P08246 whole entry): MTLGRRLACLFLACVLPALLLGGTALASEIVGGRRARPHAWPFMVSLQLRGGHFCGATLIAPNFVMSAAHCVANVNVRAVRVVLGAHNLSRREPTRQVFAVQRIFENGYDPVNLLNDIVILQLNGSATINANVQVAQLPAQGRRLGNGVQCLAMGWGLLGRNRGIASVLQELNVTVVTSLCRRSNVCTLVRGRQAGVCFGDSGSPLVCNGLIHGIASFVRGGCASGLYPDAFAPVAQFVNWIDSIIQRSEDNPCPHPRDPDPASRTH

[2] = DRUGMATRIX: Interleukin IL-1 radioligand binding (ligand: [125I] interleukin 1beta); type: cell membranes, Membrane; conditions: nih3t3; Not Active = under 50% inhibition at 10 µM
[3] = biological target: 5-hydroxytryptamine receptor 4 (Cavia porcellus, UniProt O70528); type: cell membranes, Dunkin-Hartley, Striatum, Membrane; also: in other assays of this panel Not Active means under 50% inhibition at 10 µM
Sequence of 5-hydroxytryptamine receptor 4 (O70528 whole entry): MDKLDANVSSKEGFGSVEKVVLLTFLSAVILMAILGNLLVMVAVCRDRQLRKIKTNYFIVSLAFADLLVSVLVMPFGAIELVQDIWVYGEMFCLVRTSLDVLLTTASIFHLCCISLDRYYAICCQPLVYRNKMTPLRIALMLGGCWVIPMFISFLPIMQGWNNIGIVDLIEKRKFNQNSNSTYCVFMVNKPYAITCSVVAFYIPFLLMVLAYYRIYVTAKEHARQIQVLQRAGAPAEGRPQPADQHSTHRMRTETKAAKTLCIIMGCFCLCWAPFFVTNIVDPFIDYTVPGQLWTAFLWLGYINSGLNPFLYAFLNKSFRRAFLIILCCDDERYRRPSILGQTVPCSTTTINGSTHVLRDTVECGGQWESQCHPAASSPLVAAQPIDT

Adenosine receptor A2a = Adenosine receptor A2a (Homo sapiens, UniProt P29274); assay: DRUGMATRIX: Adenosine A2A radioligand binding (ligand: […]); type: cell membranes, HEK293, Membrane; conditions: hek293; Not Active = under 50% inhibition at 10 µM
Sequence of Adenosine receptor A2a (P29274 whole entry): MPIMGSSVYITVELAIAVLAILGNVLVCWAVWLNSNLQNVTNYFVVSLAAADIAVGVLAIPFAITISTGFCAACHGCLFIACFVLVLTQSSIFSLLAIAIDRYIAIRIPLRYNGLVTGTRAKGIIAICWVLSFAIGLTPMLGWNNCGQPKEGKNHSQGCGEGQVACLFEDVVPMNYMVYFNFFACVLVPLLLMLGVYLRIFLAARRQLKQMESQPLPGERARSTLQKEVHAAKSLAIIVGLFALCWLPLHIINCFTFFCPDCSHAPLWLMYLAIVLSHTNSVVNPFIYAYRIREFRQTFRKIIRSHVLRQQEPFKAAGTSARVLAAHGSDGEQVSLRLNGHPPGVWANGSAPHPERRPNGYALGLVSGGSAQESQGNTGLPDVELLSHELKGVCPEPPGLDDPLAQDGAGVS

[4] = DRUGMATRIX: Calcium Channel Type L, Dihydropyridine radioligand binding (ligand: [3H] Nitrendipine); type: cell membranes, Rattus norvegicus, Wistar, Cerebral cortex, Membrane; conditions: Not Active = under 50% inhibition at 10 µM
[5] = biological target: T3, Neuropeptide Y receptor type 1 (Homo sapiens, UniProt P25929); type: cell membranes, Membrane; conditions: sk-n-mc; also: in other assays of this panel Not Active means under 50% inhibition at 10 µM
T3 sequence (P25929 whole entry): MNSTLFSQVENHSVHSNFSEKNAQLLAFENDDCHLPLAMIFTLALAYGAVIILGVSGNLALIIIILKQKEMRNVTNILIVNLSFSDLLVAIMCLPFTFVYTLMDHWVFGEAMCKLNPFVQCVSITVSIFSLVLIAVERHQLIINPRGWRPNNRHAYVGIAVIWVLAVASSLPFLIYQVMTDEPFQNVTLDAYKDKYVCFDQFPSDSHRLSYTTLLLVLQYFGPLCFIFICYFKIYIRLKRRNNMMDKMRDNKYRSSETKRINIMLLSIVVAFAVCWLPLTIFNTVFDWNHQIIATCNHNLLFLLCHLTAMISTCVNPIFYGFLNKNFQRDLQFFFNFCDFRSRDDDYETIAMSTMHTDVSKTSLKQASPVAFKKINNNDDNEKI

[6] = DRUGMATRIX: Glutamate, NMDA, Phencyclidine radioligand binding (ligand: [3H] TCP); type: cell membranes, Rattus norvegicus, Wistar, Cerebral cortex, Membrane; conditions: Not Active = under 50% inhibition at 10 µM
Interstitial collagenase = biological target: T4, Interstitial collagenase (Homo sapiens, UniProt P03956); type: tissue-based, Rheumatoid synovial fibroblasts
T4 sequence (P03956 whole entry): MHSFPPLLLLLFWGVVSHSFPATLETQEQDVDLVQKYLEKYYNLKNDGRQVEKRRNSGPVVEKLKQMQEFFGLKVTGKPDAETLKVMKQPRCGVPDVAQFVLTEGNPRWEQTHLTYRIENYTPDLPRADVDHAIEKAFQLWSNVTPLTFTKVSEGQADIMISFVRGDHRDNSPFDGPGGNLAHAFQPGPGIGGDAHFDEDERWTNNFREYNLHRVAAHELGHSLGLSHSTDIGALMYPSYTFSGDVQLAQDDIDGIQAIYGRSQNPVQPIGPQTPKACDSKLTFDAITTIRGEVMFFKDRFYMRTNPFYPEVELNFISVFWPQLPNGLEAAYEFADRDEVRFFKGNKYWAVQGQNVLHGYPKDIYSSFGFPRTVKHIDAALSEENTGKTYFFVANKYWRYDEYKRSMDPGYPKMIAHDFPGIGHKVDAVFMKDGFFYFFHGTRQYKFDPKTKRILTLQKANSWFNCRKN

[7] = biological target: T5, Polyunsaturated fatty acid lipoxygenase ALOX15 (Oryctolagus cuniculus, UniProt P12530); assay: biochemical; type: tissue-based, Reticulocytes; conditions: reticulocytes
T5 sequence (P12530 whole entry): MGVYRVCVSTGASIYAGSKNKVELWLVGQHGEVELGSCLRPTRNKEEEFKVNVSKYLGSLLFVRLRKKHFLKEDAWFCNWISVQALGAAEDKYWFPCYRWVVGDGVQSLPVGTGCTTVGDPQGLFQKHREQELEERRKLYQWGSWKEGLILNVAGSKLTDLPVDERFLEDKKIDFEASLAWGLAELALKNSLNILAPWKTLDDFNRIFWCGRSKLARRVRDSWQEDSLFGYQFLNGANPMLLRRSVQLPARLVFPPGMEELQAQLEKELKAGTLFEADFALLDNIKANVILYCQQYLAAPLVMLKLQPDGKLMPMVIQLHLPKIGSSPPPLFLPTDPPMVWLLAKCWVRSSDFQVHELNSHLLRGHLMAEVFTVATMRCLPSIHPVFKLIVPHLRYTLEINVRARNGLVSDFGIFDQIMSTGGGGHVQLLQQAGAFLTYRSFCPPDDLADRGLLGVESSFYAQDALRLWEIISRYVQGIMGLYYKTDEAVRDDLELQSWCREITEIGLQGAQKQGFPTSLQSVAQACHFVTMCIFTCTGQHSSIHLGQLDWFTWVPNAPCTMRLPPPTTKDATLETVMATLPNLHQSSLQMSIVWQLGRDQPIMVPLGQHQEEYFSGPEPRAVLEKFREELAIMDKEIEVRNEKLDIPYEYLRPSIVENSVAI

C[C@]12Cc3c[nH]nc3C[C@@H]1CC[C@@H]1[C@@H]2CC[C@@]2(C)[C@H]1CC[C@]2(C)O [STANOZOLOL]
Not Active: IC50 (Glycine receptor) | IC50 [1] | IC50 (Neutrophil elastase) | IC50 [2] | Ki [2] | IC50 [3] | IC50 (Adenosine receptor A2a) | IC50 [4] | Ki [4] | IC50 [5] | IC50 [6] | Ki [6] | IC50 (Interstitial collagenase) | IC50 [7]

CN(N=O)C(=O)N[C@@H](C=O)[C@@H](O)[C@H](O)[C@H](O)CO [STREPTOZOCIN]
Not Active: IC50 (Glycine receptor) | IC50 [1] | IC50 (Neutrophil elastase) | IC50 [2] | Ki [2] | IC50 [3] | IC50 (Adenosine receptor A2a) | IC50 [4] | Ki [4] | IC50 [5] | IC50 [6] | Ki [6] | IC50 (Interstitial collagenase) | IC50 [7]

Cc1cc(NS(=O)(=O)c2ccc(N)cc2)no1 [SULFAMETHOXAZOLE]
Not Active: IC50 (Glycine receptor) | IC50 [1] | IC50 (Neutrophil elastase) | IC50 [2] | Ki [2] | IC50 [3] | IC50 (Adenosine receptor A2a) | IC50 [4] | Ki [4] | IC50 [5] | IC50 [6] | Ki [6] | IC50 (Interstitial collagenase) | IC50 [7]

Nc1ccc(S(N)(=O)=O)cc1 [SULFANILAMIDE]
Not Active: IC50 (Glycine receptor) | IC50 [1] | IC50 (Neutrophil elastase) | IC50 [2] | Ki [2] | IC50 [3] | IC50 (Adenosine receptor A2a) | IC50 [4] | Ki [4] | IC50 [5] | IC50 [6] | Ki [6] | IC50 (Interstitial collagenase) | IC50 [7]

Nc1ccc(S(=O)(=O)Nc2ccnn2-c2ccccc2)cc1 [SULFAPHENAZOLE]
Not Active: IC50 (Glycine receptor) | IC50 [1] | IC50 (Neutrophil elastase) | IC50 [2] | Ki [2] | IC50 [3] | IC50 (Adenosine receptor A2a) | IC50 [4] | Ki [4] | IC50 [5] | IC50 [6] | Ki [6] | IC50 (Interstitial collagenase) | IC50 [7]

C=CC[C@@H]1/C=C(\C)C[C@H](C)C[C@H](OC)[C@H]2O[C@@](O)(C(=O)C(=O)N3CCCC[C@H]3C(=O)O[C@H](/C(C)=C/[C@@H]3CC[C@@H](O)[C@H](OC)C3)[C@H](C)[C@@H](O)CC1=O)[C@H](C)C[C@@H]2OC [TACROLIMUS ANHYDROUS]
Not Active: IC50 (Glycine receptor) | IC50 [1] | IC50 (Neutrophil elastase) | IC50 [2] | Ki [2] | IC50 [3] | IC50 (Adenosine receptor A2a) | IC50 [4] | Ki [4] | IC50 [5] | IC50 [6] | Ki [6] | IC50 (Interstitial collagenase) | IC50 [7]

CC1CN(c2cc3c(cc2F)c(=O)c(C(=O)O)cn3-c2ccc(F)cc2F)CCN1 (stereo not drawn) [TEMAFLOXACIN]
Not Active: IC50 (Glycine receptor) | IC50 [1] | IC50 (Neutrophil elastase) | IC50 [2] | Ki [2] | IC50 [3] | IC50 (Adenosine receptor A2a) | IC50 [4] | Ki [4] | IC50 [5] | IC50 [6] | Ki [6] | IC50 (Interstitial collagenase) | IC50 [7]
